How the values were obtained:
Aromatase [1] = target: T1, Aromatase (Homo sapiens, UniProt P11511); assay: Binding affinity for human placental microsome cytochrome P450 19A1 with 1 uM [1-beta-3H]-androstenedione
T1 sequence (P11511 whole entry): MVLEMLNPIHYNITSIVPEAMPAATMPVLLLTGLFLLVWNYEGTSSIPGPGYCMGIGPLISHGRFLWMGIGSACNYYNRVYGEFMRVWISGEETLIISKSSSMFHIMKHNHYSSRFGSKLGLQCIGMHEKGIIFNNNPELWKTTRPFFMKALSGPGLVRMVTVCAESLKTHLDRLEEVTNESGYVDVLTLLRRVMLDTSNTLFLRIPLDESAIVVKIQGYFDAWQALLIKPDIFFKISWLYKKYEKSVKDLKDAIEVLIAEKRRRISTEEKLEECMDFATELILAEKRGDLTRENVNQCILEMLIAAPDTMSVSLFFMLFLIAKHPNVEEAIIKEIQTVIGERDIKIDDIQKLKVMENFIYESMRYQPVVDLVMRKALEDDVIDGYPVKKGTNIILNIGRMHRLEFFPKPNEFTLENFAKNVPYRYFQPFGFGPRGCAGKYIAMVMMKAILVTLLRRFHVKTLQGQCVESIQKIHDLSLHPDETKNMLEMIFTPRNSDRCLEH

Aromatase [2] = target: T1, Aromatase
Description: Inhibition of 1 uM [1-beta-3H]-androstenedione binding to human placental microsome Cytochrome P450 19A1

Row | Compound | Ki (Aromatase [1]) | IC50 (Aromatase [2])
1 | C[C@]12CC[C@H]3[C@@H](CCC4=CCCC[C@@]43CO)[C@@H]1CCC2=O | 13 nM | 270 nM
2 | C[C@]12CC[C@H]3[C@@H](CCC4=CCCC[C@@]43C(F)F)[C@@H]1CC[C@@H]2O |  | 26000 nM
3 | CC(=O)OCC12CCCC=C1CCC1C2CCC2(C)C(OC(C)=O)CCC12 (centres undefined) |  | 38000 nM
4 | CC12CCCC=C1CCC1C2CCC2(C)C(O)CCC12 (centres undefined) | 830 nM | 7300 nM
5 | CC12CCC3C(CCC4=CCCCC43CO)C1CCC2O (centres undefined) | 170 nM | 2300 nM
6 | CC(=O)OCC12CCCC=C1CCC1C2CCC2(C)C(O)CCC12 (centres undefined) |  | 44000 nM
7 | CC12CCC3C(CCC4=CCCCC43C)C1C[C@H](Br)C2=O (some centres undefined) | 455 nM | 5900 nM
8 | CC(=O)OC1CCC2C3CCC4=CCCCC4(CO)C3CCC12C (centres undefined) |  | 100000 nM
9 | C#CC(O)C12CCCC=C1CCC1C3CCC(=O)C3(C)CCC12 (centres undefined) | 7750 nM | 62000 nM
10 | CC12CCC3C(CCC4=CCCCC43C)C1C[C@@H](Br)C2=O (some centres undefined) | 228 nM | 4100 nM
11 | CC12CCC3C(CCC4=CCCCC43C(F)F)C1CCC2=O (centres undefined) | 443 nM | 1200 nM
12 | C[C@]12CCC(=O)C(O)=C1CC[C@@H]1[C@@H]2CC[C@]2(C)C(=O)CC[C@@H]12 [FORMESTANE] |  | 410 nM

Source: ChEMBL document CHEMBL1125884, “Synthesis and biochemical studies of 16- or 19-substituted androst-4-enes as aromatase inhibitors” (J Med Chem, 1991)
